Earlier results on one substance are cited in US20230180818A1, “AEROSOLISED FORMULATION” (NICOVENTURES TRADING LIMITED, priority 2018, published 2023).

The conditions of the data set: compared to base cyclodextrins such as β-cyclodextrin.

For 2-hydroxy-propyl-β-cyclodextrin, the solubility in water entry was “increased solubility in water”.
